Values after ≈ are worked out from the molar mass of the structure shown. Read-outs that look alike come from different tables or passages of the source.
How the values were obtained:
[1] = tested on: Hartley-derived albino guinea pigs
[2] = Interfacial tension predictions (Washburn method, Fowkes theory); assay type: physicochemical
Method: Based on the contact angle data, the surface energy is calculated and polar and dispersive components of surface energy as well as surface polarity are estimated.
A surface tension study was performed to characterize active agent samples, various oils and specific formulations for Surface energy with polar and dispersive components. The Washburn method was used to determine contact angles and the Fowkes theory was used to calculate surface energies.
Surface tension measurements were performed on several oils and the following formulations: OT1.0016P (elastomer-MCT oil-based formulation), OT1.0021P (elastomer-based formulation comprising a combination of MCT oil, squalane and isopropyl isostearate) and OT1.0022P (elastomer-based formulation comprising a combination of MCT oil, squalane and oleyl alcohol).

[3] = AD murine model: body weight
Method: Atopic Dermatitis is induced by once daily application for 38 days of 100 μl of 0.5% 2,4-dinitrochlorobenzene (DNCB) solution onto the shaved back skin of mice. Starting on day 32, test formulations are administered once daily onto the shaved back skin of mice in addition to DNCB. Several measurements are taken at different time points:
Daily from Day 32: Body weight, mortality, behaviour (scratching), general condition, AD index.

[4] = Skin penetration (IVPT), vertical diffusion cell, LC-MS/MS; assay type: in vitro ADME, human; conditions: for Dermis concentration, μg/g Based on the Mean (n = 5) / Epidermis concentration, μg/g Based on the Mean (n = 5): estimated, skin 500 μm; for Dermis concentration, μg/g Based on the Mean (n = 5) / Epidermis concentration, μg/g Based on the Mean (n = 5) / estimated concentration of active in epidermis: epidermis assumed 80 μm, density 1.0 g/cm^3; for fingolimod concentration in receptor fluid: quantitation limit of LC-MS method
Method: The skin is dosed with approx. 6 mg of formulation to achieve a dose of ˜10 mg/cm2. Receptor solution is collected at pre-determined intervals over the course of 24 hours and analyzed using a liquid chromatography with tandem mass spectrometry (LC-MS/MS) analytical method.
Following 24 hours, the residual formulation is removed from the surface of the skin. The skin surface is tape-stripped up to five times to remove residual formulation and the top of the skin surface layers (Stratum Corneum). The epidermis is then heat-separated from the dermis. The active agent is extracted from the skin layers and the amount of active agent delivered to the epidermis and dermis is then determined by LC-MS/MS.

[5] = Visual solubility determination of Fingolimod free base in organic solvents at RT; assay type: physicochemical; conditions: for solubility: organic solvent or mixture, thermodynamic from solid, visual determination at RT
Method: A visual solubility evaluation of Fingolimod free base was performed.

[6] = Chemical stability of topical formulations (HPLC); assay type: physicochemical
Method: Where another active agent such as fingolimod is present in the formulations the samples are analysed for that active agent and its degradation products by HPLC. […] The gradient elution is employed.

[7] = Toxicokinetic / pK evaluation in Gottingen Minipigs (plasma tofacitinib, whole blood fingolimod and fingolimod phosphate); conditions: minipig, topical
Method: (§1) The animals are not fasted prior to blood collection, with the exception of the intervals that coincide with fasting for clinical pathology collections.
(§2) If necessary, the samples are frozen on dry ice prior to being placed in the freezer. […] Samples are stored at the bioanalytical laboratories in a freezer set to maintain −80±10° C. until analysis.
(§3) Samples designated for analysis of fingolimod and fingolimod phosphate are mixed gently, lysed with an equal volume of deionized water, vortexed for approximately 1 minute, divided into two approximately equal aliquots, transferred to uniquely labeled polypropylene tubes and frozen in a freezer set to maintain −70° C. If necessary, the samples are frozen on dry ice prior to being placed in the freezer. The samples for fingolimod analysis are shipped with a temperature monitoring device to bioanalytical laboratories. Samples are stored at the bioanalytical laboratories in a freezer set to maintain −75±15° C. until analysis.
(§4) Whole blood is analyzed for concentration of fingolimod and fingolimod phosphate using a validated analytical procedure for the simultaneous quantitation of both analytes.
(§5) TK samples collected on Days 49 and 56 from recovery animals in Groups 1, 2, 3, 5, and 6 are also analyzed. Statistical analyses including regression analysis and descriptive statistics including arithmetic means and standard deviations, accuracy, and precision are performed. Incurred sample reanalysis may be performed as part of this study according to the Test Site SOPs.
(§6) A non-compartmental approach consistent with the dermal route of administration is used for parameter estimation.
(§7) Partial AUCs (between 2 defined sample times), and corresponding dose-normalized values, are derived and reported to aid interpretation. Descriptive statistics (e.g., number, arithmetic mean, median, standard deviation, standard error, coefficient of variation) are reported as deemed appropriate, as well as ratios for appropriate grouping and sorting variables (e.g. AUC and/or Cmax female/male ratios, AUC and/or Cmax metabolite/parent drug ratios).

in vivo = conditions: both, Gottingen, minipig, plasma (tofacitinib); whole blood (fingolimod), topical
Method: as §1, §2, §3, §4, §5, §6, §7

[8] = tested on: Atopic Dermatitis induced by 2,4-dinitrochlorobenzene (DNCB); assay: AD murine model: AD index (ADI, mADI), behaviour, histological analysis of skin; assay type: in vivo; conditions: DNCB induced mice, Example 41 (combination study)
Excerpt: As used herein, “Atopic Dermatitis Index (ADI)” refers to the sum of the scores of four factors consisting of: (1) the presence of erythema/haemorrhage on the skin, (2) edema/thickening of the skin, (3) excoriation/erosion of the skin and (4) dryness/peeling of the skin at the area of induction of atopic dermatitis. The sum of the scores of these factors provides a combined ADI, on a scale of 0 to 12. […]
The presence of erythema/haemorrhage is scored based on the following scoring grid: • 0=no or no more erythema/haemorrhage on the skin, • 1=weak erythema/haemorrhage on the skin, • 2=moderate erythema/haemorrhage on the skin, • 3=severe erythema/haemorrhage on the skin.
The presence of edema/thickening is scored based on the following scoring grid: • 0=no or no more edema/thickening of the skin, • 1=weak edema/thickening of the skin, • 2=moderate edema/thickening of the skin, • 3=severe edema/thickening of the skin.
The presence of excoriation/erosion is scored based on the following scoring grid: • 0=no or no more excoriation/erosion of the skin, • 1=weak excoriation/erosion of the skin, • 2=moderate excoriation/erosion of the skin, • 3=severe excoriation/erosion of the skin. […]

[9] = tested on: S1P receptors (S1P1 and S1P3-5); conditions: cited from earlier work
[10] = Dermis, formulation of Table 42 (fingolimod HCl […])
[11] = Dermis, formulation of Table 43a
[12] = Epidermis, formulation of Table 43a
[13] = Receptor fluid, formulation of Table 42 (fingolimod HCl […])
[14] = Receptor fluid, formulation of Table 43a
[15] = formulation with 1.0% tofacitinib citrate and […] fingolimod hydrochloride
[16] = 2 months at 40° C., formulation of Table 38
[17] = 2 months at 50° C., formulation of Table 38
[18] = 3 weeks at 5° C., formulation of Table 38
[19] = 3 weeks at 50° C., formulation of Table 38

With O=[N+]([O-])c1ccc(Cl)c([N+](=O)[O-])c1 [DNCB, 2,4-dinitrochlorobenzene] the “Group mean dermal scores, test animals” value ([1]; challenge with 0.05% w/v DNCB in acetone and ethanol, control animals 0.25) was 0.6 and the “Group mean dermal scores, test animals” value ([1]; challenge with 0.1% w/v DNCB in acetone and ethanol, control animals 0.375) was 1.45.
With C[C@@H]1CCN(C(=O)CC#N)C[C@@H]1N(C)c1ncnc2[nH]ccc12.O=C(O)CC(O)(CC(=O)O)C(=O)O [Tofacitinib Citrate micronized Lot TOF0000004-04] the “Interfacial Tension” value ([2]; with OT1.0016P) was 2.72 mN/m, the “Interfacial Tension” value ([2]; with OT1.0021P) was 2.17 mN/m and the “Interfacial Tension” value ([2]; with OT1.0022P) was 1.95 mN/m. For the same compound, the “Interfacial Tension” value ([2]; with Stainless Steel) was 2.50 mN/m.
In the case of C[C@@H]1CCN(C(=O)CC#N)C[C@@H]1N(C)c1ncnc2[nH]ccc12.O=C(O)CC(O)(CC(=O)O)C(=O)O [Tofacitinib Citrate non-micronized Lot TOF0000004], the “Interfacial Tension” value ([2]; with OT1.0016P) is reported as 1.88 mN/m, the “Interfacial Tension” value ([2]; with OT1.0021P) is reported as 1.45 mN/m and the “Interfacial Tension” value ([2]; with Stainless Steel) is reported as 1.62 mN/m.
In the case of CC1(C)O[C@@H]2C[C@H]3[C@@H]4CCC5=CC(=O)C=C[C@]5(C)[C@@]4(F)[C@@H](O)C[C@]3(C)[C@]2(C(=O)CO)O1 [Triamcinolone acetonide], the “Mean body weights values: Weight D 32” value ([3]; DNCB induced mice, Example 41, D 32 (treatment start)) is reported as 18.31, the “Mean body weights values: Weight D 39” value ([3]; DNCB induced mice, Example 41, D 39) is reported as 15.66 and the “Mean Body Weight Change d 39 − d 32” value ([3]; DNCB induced mice, Example 41, (+) weight gain, (−) weight loss) is reported as −2.65.
For CCCCCCCCc1ccc(CCC(N)(CO)CO)cc1 [fingolimod, 2-amino-2-[2-(4-octylphenyl)ethyl]propane-1,3-diol], the “Amount of Fingolimod recovered, % applied dose, Mean (n = 5)” value (from here on “Amount … % applied dose, Mean (n = 5)”) [4, 10] was 2.59%, the “Amount of Fingolimod recovered, ng, Mean (n = 5)” value (“Amount … ng, Mean (n = 5)” below) [4, 10] was 49.16 ng and the “Amount … % applied dose, Mean (n = 5)” value [4, 11] was 1.44%. For the same compound, the “Amount … ng, Mean (n = 5)” value [4, 11] was 14.82 ng, the “Amount … % applied dose, Mean (n = 5)” value ([4]; Epidermis, formulation of Table 42 (fingolimod HCl […])) was 1.98% and the “Amount … % applied dose, Mean (n = 5)” value [4, 12] was 1.59%. The “Amount … ng, Mean (n = 5)” value [4, 12] was 16.21 ng, the “Amount … % applied dose, Mean (n = 5)” value [4, 13] was “ND (ND—not detected (below LOQ of 0.25 ng/mL))” and the “Amount … ng, Mean (n = 5)” value [4, 13] was “ND (ND—not detected (below LOQ of 0.25 ng/mL))”. The “Amount … % applied dose, Mean (n = 5)” value [4, 14] was “ND (ND—not detected (below LOQ of 0.25 ng/ml))”, the “Amount … ng, Mean (n = 5)” value [4, 14] was “ND (ND—not detected (below LOQ of 0.25 ng/ml))” and the “Dermis concentration, μg/g Based on the Mean (n = 5)” value ([4]; formulation of Table 43a) was 0.6 µg/g. The “Epidermis concentration, μg/g Based on the Mean (n = 5)” value ([4]; formulation of Table 43a) was 3.4 µg/g, the “fingolimod concentration in receptor fluid” value ([4]; formulation containing […] of fingolimod hydrochloride) was under 0.25 ng/mL and the “estimated concentration of active in dermis” value [4, 15] was 0.6 µg/mL. For the same compound, the “estimated concentration of active in epidermis” value [4, 15] was 3.4 µg/g, the “fingolimod concentration in receptor fluid” value [4, 15] was under 0.25 ng/mL and the visual solubility ([5]; alcohols, RT) was “very good solubility”. For the same compound, the visual solubility ([5]; most of organic solvents tested, RT) was “good solubility”, the solubility ([5]; 2-Methyl tetrahydrofurane) was 10000 µg/mL (≈ 32.5 mM) and the solubility ([5]; Acetone) was 5000 µg/mL (≈ 16.3 mM). The solubility ([5]; Acetonitrile) was 1800 µg/mL (≈ 5.85 mM), the solubility ([5]; Dichloromethane) was 6700 µg/mL (≈ 21.8 mM) and the solubility ([5]; Ethyl acetate) was 4000 µg/mL (≈ 13 mM). It also gave a solubility ([5]; Isopropanol) of 20000 µg/mL (≈ 65 mM), a solubility ([5]; Methyl ethyl ketone) of 1200 µg/mL (≈ 3.9 mM) and a solubility ([5]; Methyl isobutyl ketone) of 5000 µg/mL (≈ 16.3 mM). For the same compound, the solubility ([5]; tert-Butyl methyl ether) was 2000 µg/mL (≈ 6.5 mM), the visual solubility ([5]; water, toluene, diisopropyloxide and methyl ethyl ketone) was “very low soluble” and the “Assay, % LC” value [6, 16] was 97.2 % LC. For the same compound, the “Assay, % LC” value [6, 17] was 95.0 % LC, the “Assay, % LC” value [6, 18] was 100.3 % LC and the “Assay, % LC” value ([6]; 3 weeks at 40° C., formulation of Table 38) was 99.9 % LC. The “Assay, % LC” value [6, 19] was 94.1 % LC, the “Assay, % LC” value ([6]; Initial, elastomer-based formulation of Table 38 (tofacitinib citrate 1.0%, fingolimod HCl 0.01%)) was 99.9 % LC and the AUC(0-t) [7] was 3.73 ng·h/mL. The Cmax [7] was 0.467 ng/mL.
For C[C@@H]1CCN(C(=O)CC#N)C[C@@H]1N(C)c1ncnc2[nH]ccc12 [tofacitinib], the “Dermis concentration, μg/g Based on the Mean (n = 5)” value ([4]; formulation of Table 43a) was 34.9 µg/g, the “Epidermis concentration, μg/g Based on the Mean (n = 5)” value ([4]; formulation of Table 43a) was 364.3 µg/g and the “estimated concentration of active in dermis” value [4, 15] was 34.9 µg/g. The “estimated concentration of active in epidermis” value [4, 15] was 364.3 µg/g, the Cmax (in vivo) was 1.56 ng/mL and the “Assay, % LC” value [6, 16] was 99.2 % LC. For the same compound, the “Assay, % LC” value [6, 17] was 98.6 % LC, the “Assay, % LC” value [6, 18] was 99.3 % LC and the “Assay, % LC” value [6, 19] was 99.1 % LC.
In the case of CC1(C)O[C@@H]2C[C@H]3[C@@H]4CCC5=CC(=O)C=C[C@]5(C)[C@@]4(F)[C@@H](O)C[C@]3(C)[C@]2(C(=O)CO)O1 [triamcinolone acetonide], the “Mean ADI values (AD Index) D 39” value [8] is reported as 0.88.
For Triamcinolone, the “Body weight D39 Mean” value ([3]; mouse, in vivo) was 17.7 g, the “Body weight D39 mean” value ([3]; mouse, in vivo) was 17.1 g and the “Mean Body Weight Change Day 39 − Day 32, Study 1” value ([3]; mouse, in vivo) was −2.80. The “Mean Body Weight Change Day 39 − Day 32, Study 2” value ([3]; mouse, in vivo) was −2.06 and the “Mean Body Weight Change d 39 − d 32” value ([3]; mouse, in vivo) was −2.80.
For fingolimod-phosphate, the “affinity to four of the five S1P receptors (S1P1 and S1P3-5)” value [9] is given as 0.3 to 3.1 nM.
